Data: patent US8445509B2, “Fused heterocyclic derivatives and use thereof” (Takeda Pharmaceutical Company Limited, priority 2008, dated 2013)

Assays:
[1] = test system: Human blood cell cancer cell line MV-4-11; experiment: Human blood cell cancer cell line MV-4-11 growth inhibitory test; assay type: cell-based; conditions: MV4-11, 72 h, culture for 3 days; for inhibition at 1 µM: 1 μM test substance, read-out: inhibitory rate (%) at 1 μM
[2] = test system: Human gastric cancer cell line MKN-45; experiment: Human gastric cancer cell line MKN-45 growth inhibitory test; assay type: cell-based; conditions: MKN-45, 72 h, culture for 3 days; for inhibition at 1 µM: 1 μM test substance, read-out: inhibitory rate (%) at 1 μM; for IC50: read-out: IC50 value
How it was run: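 MKN-45 cells plated at 3000/well in RPMI1640 with 0.3% FBS, then exposed to test substance for 3 days at 37 °C. Viability read by CCK-8 absorbance at 450 nm; IC50 from variable-slope sigmoidal fit, with DMSO as 100% growth and 10 µM reference c-Met inhibitor as 0% growth.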

[3] = target: T1, c-Met intracellular domain protein (Homo sapiens, UniProt P08581); experiment: Hepatocyte growth factor receptor (c-Met) kinase inhibitory activity (AlphaScreen); assay type: biochemical; conditions: for inhibition at 1 µM: 1 μM test compound, read-out: inhibitory rate (%) at 1 μM
T1 construct: 2.5 ng/ml of c-Met intracellular domain protein (Millipore); purchased Millipore
T1 sequence (P08581 956-1390 limits assumed): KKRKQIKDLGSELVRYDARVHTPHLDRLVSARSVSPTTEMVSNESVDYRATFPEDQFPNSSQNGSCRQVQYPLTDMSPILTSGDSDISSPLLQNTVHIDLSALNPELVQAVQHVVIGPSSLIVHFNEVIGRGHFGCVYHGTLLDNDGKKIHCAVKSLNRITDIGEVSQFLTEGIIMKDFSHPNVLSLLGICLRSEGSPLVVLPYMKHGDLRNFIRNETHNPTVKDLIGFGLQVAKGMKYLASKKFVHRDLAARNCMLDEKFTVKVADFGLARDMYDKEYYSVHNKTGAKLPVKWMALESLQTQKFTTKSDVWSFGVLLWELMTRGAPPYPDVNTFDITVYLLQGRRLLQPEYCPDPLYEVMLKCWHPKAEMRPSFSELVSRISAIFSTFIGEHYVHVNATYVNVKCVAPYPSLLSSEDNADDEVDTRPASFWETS
How it was run: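 Compound in DMSO was diluted into 50 mM Tris-HCl pH 7.5, 5 mM MgCl2, 5 mM MnCl2, 2 mM DTT, 0.01% Tween-20. Enzyme (2.5 ng/ml) and biotin-poly-Glu:Tyr (4:1) (250 ng/mL) were added as a solution at these concentrations.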

[4] = target: T2, VEGFR2 intracellular domain protein (Homo sapiens, UniProt P35968); experiment: Vascular endothelial growth factor receptor 2 (VEGFR2) kinase inhibitory activity (AlphaScreen); assay type: biochemical
T2 construct: made in house; host or cells: SF-21 insect cells, recombinant baculovirus BAC-VEGFR2
T2 sequence (P35968 786-1356 limits assumed): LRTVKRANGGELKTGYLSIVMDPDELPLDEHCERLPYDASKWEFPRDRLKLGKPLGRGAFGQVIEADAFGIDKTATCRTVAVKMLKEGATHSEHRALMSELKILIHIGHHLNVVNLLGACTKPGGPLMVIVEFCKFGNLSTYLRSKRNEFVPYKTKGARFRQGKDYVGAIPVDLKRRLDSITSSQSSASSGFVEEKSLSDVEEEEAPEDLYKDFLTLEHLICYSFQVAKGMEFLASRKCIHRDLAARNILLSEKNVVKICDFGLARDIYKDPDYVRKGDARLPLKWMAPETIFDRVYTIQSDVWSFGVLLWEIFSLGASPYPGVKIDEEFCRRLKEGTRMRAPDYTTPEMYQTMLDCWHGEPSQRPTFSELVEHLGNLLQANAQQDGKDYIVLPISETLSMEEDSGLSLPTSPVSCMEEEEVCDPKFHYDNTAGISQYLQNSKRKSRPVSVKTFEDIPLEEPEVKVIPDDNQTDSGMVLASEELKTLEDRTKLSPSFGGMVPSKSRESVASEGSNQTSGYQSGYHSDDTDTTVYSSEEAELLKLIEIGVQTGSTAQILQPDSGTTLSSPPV
How it was run: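 FLAG-purified VEGFR2 intracellular domain from baculovirus-infected Sf21 cells was added as a 50 ng/mL solution with 250 ng/mL biotin-poly-Glu:Tyr (4:1) to compound in 50 mM Tris-HCl pH 7.5, 5 mM MgCl2, 5 mM MnCl2, 2 mM DTT, 0.01% Tween-20.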

SMILES	inhibition at 1 µM [1]	IC50 [1]	inhibition at 1 µM [2]	IC50 [2]	IC50 [3]	inhibition at 1 µM [3]	IC50 [4]
Cc1cc(C(=O)Nc2ccc(Oc3ccc4nc(NC(=O)C5CC5)cn4c3)c(F)c2)c(=O)n(-c2ccc(F)cc2)c1 [Example 66, N-[4-({2-[(cyclopropylcarbonyl)amino]imidazo[1,2-a]pyridin-6-yl}oxy)-3-fluorophenyl]-1-(4-fluorophenyl)-5-methyl-2-oxo-1,2-dihydropyridine-3-carboxamide]	≥ 90%	≤ 1000 nM	≥ 80%	≤ 1000 nM	≤ 1000 nM	≥ 80%	≤ 1000 nM
Cc1ccc(C(=O)Nc2ccc(Oc3ccc4nc(NC(=O)C5CC5)cn4c3)cn2)[n+]([O-])c1-c1ccc(F)cc1 [Example 61, N-[5-({2-[(cyclopropylcarbonyl)amino]imidazo[1,2-a]pyridin-6-yl}oxy)pyridin-2-yl]-6-(4-fluorophenyl)-5-methylpyridine-2-carboxamide 1-oxide]	≥ 90%	≤ 1000 nM	≥ 80%	≤ 1000 nM	≤ 1000 nM	≥ 80%	≤ 1000 nM
Cc1ccc(C(=O)Nc2ccc(Oc3ccn4nc(NC(=O)C5CC5)nc4c3)c(F)c2)c(=O)n1-c1ccc(F)cc1 [Example 76, N-[4-({2-[(cyclopropylcarbonyl)amino][1,2,4]triazolo[1,5-a]pyridine-7-yl}oxy)-3-fluorophenyl]-1-(4-fluorophenyl)-6-methyl-2-oxo-1,2-dihydropyridine-3-carboxamide]	≥ 90%	≤ 1000 nM	≥ 80%	≤ 1000 nM	≤ 1000 nM	≥ 80%	≤ 1000 nM
